Laboratory results taken from patent US4820707A, “2,6-piperazinedione compounds” (ADIR Et Cie, priority 1986, dated 1989).
Structures can show the parent of a compound that is named as a salt.

Assays:
Assay type in all cases: in vivo
[1] = Anxiolytic activity by the four-plates test; details: mice; for change in vivo at 5 mg/kg: 5 mg.kg^-1; for % increase in the responses: p.o.
Protocol: The anxiolytic activity of the compounds of the general formula I was investigated in mice according to the method of Aron Simon Larousse and Boissier described in Neuropharmacology (1971) 10 p. 459-469). After treatment of the animals by means of different doses of the compounds of the invention administered intraperitoneally or orally, the increase in the percentage of transitions during the exploration of the base of the test cage, in the presence of electric shocks, was assessed.

[2] = Anxiolytic activity by the "staircase" test; parameters: key to % variation in the steps climbed: NS: not significant; details: rats
Text: The anxiolytic activity of the compounds of the invention was investigated in rats according to the method described by Thiebot, Soubrie and Boissier in J. Pharmacol. 1976, 7, (1), p. 87-102. In this test, behavior involving rearing movements is associated with a state of distress of the animal. The number of steps climbed represents the normal exploratory behavior of the rat introduced into the enclosure. Normally, an efficacious anxiolytic compound should decrease, during the test which lasts 3 minutes, the number of rearing movements without modifying the number of steps climbed, or on the contrary should increase this latter parameter.

[3] = Inhibition of isolation-induced aggression in mice; details: Mus musculus, ip, read-out: Inhibitory ED50 (effective dose inhibiting 50% of the aggressive animals)
Text: The compounds of general formula I inhibit the attacking behavior of mice rendered aggressive by isolation according to the method described by Yen, Stanger and Millman in Arch. Int. Pharmacodyn. 1959, 123, p. 179-185.

[4] = Inhibition of the active conditioned avoidance response in rats; details: i.p.
Text: The results obtained with the compounds of general formula I during the various experiments employing the method described by Courvoisier et al. in Arch. Int. Pharmacodyn., 1953, 92, p. 305-361 and by Janssen et al. in Arzneim, Forsch, 1965, 15, p.

[5] = Inhibition of aggression in isolated and bulbectomized rats
Protocol: The inhibition of aggression was assessed according to the method described by Vergnes and Karli in C.R. Soc. Biol. 1963, 157, p. 1061. The effect on the aggression is assessed in terms of the percentage of animals which became non-killers after treatment.

[6] = Anxiolytic activity by MacMillan's conflict test; details: rats, i.p., vs physiological saline; for % variation in the unpunished responses: NS (not significant); for % variation in the punished responses: S (significant)
Text: In these conditioning experiments which operate in the presence of a food reward, performed in rats according to the method described by MacMillan in Fed. Proceedings, 1975, 34, (9), p. 1870-1879, two parameters in the animal's behavioral responses are considered. The first parameter is the variation in the level of punished responses, in the presence of an electric shock, under the influence of the treatment in comparison with the level of punished responses under the influence of physiological saline. The second parameter is the variation in the level of unpunished responses, without an electric shock, under the influence of the same treatment, in comparison with the level of unpunished responses when physiological saline is administered. A specific anxiolytic effect is established when, after the administration of a substance, the level of only the punished responses is increased.

[7] = Mus musculus, ip, i.p., read-out: % increase in the responses (transitions)
[8] = Mus musculus, ip, i.p., 25 mg.kg^-1, read-out: % increase in the responses (transitions)
[9] = Mus musculus, ip, i.p., 10 mg.kg^-1, read-out: % increase in the responses (transitions)

O=C1CN(Cc2ccccc2Cl)CC(=O)N1CCCN1CCN(c2cccc(C(F)(F)F)c2)CC1 [Example 4, 4-(2-Chlorobenzyl)-1-{3-[1-(3-trifluoromethylphenyl)-4-piperazinyl]propyl}-2,6-piperazinedione dimandelate]
change in vivo at 5 mg/kg [1, 7]: 37%
change in vivo at 25 mg/kg [1, 8]: 67%
% increase in the responses ([1]; 25 mg.kg^-1): 35%
% increase in the responses ([1]; 50 mg.kg^-1): 58%
% variation in the rearing movements ([2]; i.p., 10 mg.kg^-1): -47%
% variation in the steps climbed ([2]; i.p., 10 mg.kg^-1): NS

Cl.Cl.Cl.O=C1CN(Cc2ccccc2)CC(=O)N1CCCCN1CCN(c2ncccn2)CC1 [Example 5, 4-Benzyl-1-{4-[1-(2-pyrimidinyl)-4-piperazinyl]butyl}-2,6-piperazinedione trihydrochloride]
% variation in the rearing movements ([2]; i.p., 1,25 mg.kg^-1): -40%
% variation in the steps climbed ([2]; i.p., 1,25 mg.kg^-1): NS

COc1ccccc1CN1CC(=O)N(CCCCN2CCN(c3cccc(C(F)(F)F)c3)CC2)C(=O)C1.Cl.Cl [Example 6, 4-(2-Methoxybenzyl)-1-{4-[1-(3-trifluoromethylphenyl)-4-piperazinyl]butyl}-2,6-piperazinedione dihydrochloride]
ED50 [3]: 4.74 mg/kg
change in vivo at 25 mg/kg [1, 8]: 37%

Cl.Cl.Cl.O=C1CN(Cc2ccccn2)CC(=O)N1CCCN1CCN(c2ccc(F)cc2)CC1 [Example 7, 4-(2-Pyridylmethyl)-1-{3-[1-(4-fluorophenyl)-4-piperazinyl]propyl}-2,6-piperazinedione trihydrochloride]
% ICAR (percentage inhibition of the conditioned avoidance response) ([4]; 10 mg.kg^-1): 30%
% ICAR (percentage inhibition of the conditioned avoidance response) ([4]; 15 mg.kg^-1): 48%
% ICAR (percentage inhibition of the conditioned avoidance response) ([4]; 20 mg.kg^-1): 79%
% of non-killer animals ([5]; i.p., 25 mg.kg^-1): 67%

Cl.Cl.O=C1CN(Cc2ccccc2)CC(=O)N1CCN1CCN(c2cccc(C(F)(F)F)c2)CC1 [Example 10, 4-Benzyl-1-{2-[1-(3-trifluoromethylphenyl)-4-piperazinyl]ethyl}-2,6-piperazinedione dihydrochloride]
% variation in the unpunished responses ([6]; 5 mg.kg^-1): +18%
% variation in the punished responses ([6]; 5 mg.kg^-1): +67%
% of non-killer animals ([5]; i.p., 25 mg.kg^-1): 66%
change in vivo at 25 mg/kg [1, 8]: 85%

COc1ccccc1CN1CC(=O)N(CCCN2CCN(c3ccc(C)cc3)CC2)C(=O)C1 [Example 14, 4-(2-Methoxybenzyl)-1-{3-[1-(4-methylphenyl)-4-piperazinyl]propyl}-2,6-piperazinedione]
% variation in the unpunished responses ([6]; 5 mg.kg^-1): +14%
% variation in the punished responses ([6]; 5 mg.kg^-1): +48%

COc1ccccc1CN1CC(=O)N(CCCN2CCN(c3cccc(C(F)(F)F)c3)CC2)C(=O)C1.Cl.Cl [Example 15, 4-(2-Methoxybenzyl)-1-{3-[1-(3-trifluoromethylphenyl)-4-piperazinyl]propyl}-2,6-piperazinedione dihydrochloride]
% variation in the unpunished responses ([6]; 10 mg.kg^-1): +37%
% variation in the punished responses ([6]; 10 mg.kg^-1): +41%
% of non-killer animals ([5]; i.p., 25 mg.kg^-1): 64%
change in vivo at 20 mg/kg ([1]; Mus musculus, ip, i.p., 20 mg.kg^-1, read-out: % increase in the responses (transitions)): 52%
% increase in the responses ([1]; 10 mg.kg^-1): 61%
% increase in the responses ([1]; 50 mg.kg^-1): 90%
% variation in the rearing movements ([2]; i.p., 10 mg.kg^-1): -43%
% variation in the steps climbed ([2]; i.p., 10 mg.kg^-1): NS
% variation in the rearing movements ([2]; i.p., 20 mg.kg^-1): -64%
% variation in the steps climbed ([2]; i.p., 20 mg.kg^-1): NS

COc1ccccc1CN1CC(=O)N(CCN2CCN(c3cccc(C(F)(F)F)c3)CC2)C(=O)C1 [Example 16, 4-(2-Methoxybenzyl)-1-{2-[1-(3-trifluoromethylphenyl)-4-piperazinyl]ethyl}-2,6-piperazinedione trihydrochloride]
change in vivo at 10 mg/kg [1, 9]: 41%

Cl.Cl.Cl.O=C1CN(Cc2ccccn2)CC(=O)N1CCCN1CCN(c2ccccc2Cl)CC1 [Example 17, 4-(2-Pyridylmethyl)-1-{3-[1-(2-chlorophenyl)-4-piperazinyl]propyl}-2,6-piperazinedione trihydrochloride]
ED50 [3]: 6.11 mg/kg

COc1ccccc1N1CCN(CCCN2C(=O)CN(Cc3ccccn3)CC2=O)CC1.Cl.Cl.Cl.Cl [Example 18, 4-(2-Pyridylmethyl)-1-{3-[1-(2-methoxyphenyl)-4-piperazinyl]propyl}-2,6-piperazinedione tetrahydrochloride]
% ICAR (percentage inhibition of the conditioned avoidance response) ([4]; 10 mg.kg^-1): 18%
% ICAR (percentage inhibition of the conditioned avoidance response) ([4]; 15 mg.kg^-1): 35%
% ICAR (percentage inhibition of the conditioned avoidance response) ([4]; dose not printed in this line): 56%

Cc1ccc(N2CCN(CCCN3C(=O)CN(Cc4ccccn4)CC3=O)CC2)cc1.Cl.Cl.Cl [Example 20, 4-(2-Pyridylmethyl)-1-{3-[1-(4-methylphenyl)-4-piperazinyl]propyl}-2,6-piperazinedione trihydrochloride]
% variation in the rearing movements ([2]; i.p., 2,5 mg.kg^-1): -43%
% variation in the steps climbed ([2]; i.p., 2,5 mg.kg^-1): NS

Cl.Cl.Cl.O=C1CN(Cc2cccnc2)CC(=O)N1CCCN1CCN(c2cccc(Cl)c2)CC1 [Example 22, 4-(3-Pyridylmethyl)-1-{3-[1-(3-chlorophenyl)-4-piperazinyl]propyl}-2,6-piperazinedione trihydrochloride]
% of non-killer animals ([5]; i.p., 12,5 mg.kg^-1): 83%
change in vivo at 10 mg/kg [1, 9]: 44%

Cc1ccccc1N1CCN(CCCN2C(=O)CN(C(c3ccccc3)c3ccccc3)CC2=O)CC1 [Example 23, 4-Diphenylmethyl-1-{3-[1-(2-methylphenyl)-4-piperazinyl]propyl}-2,6-piperazinedione trimethanesulfonate]
change in vivo at 10 mg/kg [1, 9]: 47%
change in vivo at 25 mg/kg [1, 8]: 77%

O=C1CN(C(c2ccccc2)c2ccccc2)CC(=O)N1CCCN1CCN(c2cccc(C(F)(F)F)c2)CC1 [Example 24, 4-Diphenylmethyl-1-{3-[1-(3-trifluoromethylphenyl)-4-piperazinyl]propyl}-2,6-piperazinedione dimandelate]
change in vivo at 25 mg/kg [1, 8]: 62%

O=C1CN(C(c2ccccc2)c2ccc(Cl)cc2)CC(=O)N1CCCN1CCN(c2cccc(C(F)(F)F)c2)CC1 (stereo not shown) [Example 26, 4-(4-Chlorodiphenylmethyl)-1-{3-[1-(3-trifluoromethylphenyl)-4-piperazinyl]propyl}-2,6-piperazinedione dicitrate]
% increase in the responses ([1]; 25 mg.kg^-1): 69%

O=C1CN(C2CCCCC2)CC(=O)N1CCCN1CCN(c2cccc(C(F)(F)F)c2)CC1 [Example 27, 4-Cyclohexyl-1-{3-[1-(3-trilfuoromethylphenyl)-4-piperazinyl]propyl}-2,6-piperazinedione dihydrochloride]
change in vivo at 25 mg/kg [1, 8]: 73%
% variation in the rearing movements ([2]; i.p., 2,5 mg.kg^-1): -41%
% variation in the steps climbed ([2]; i.p., 2,5 mg.kg^-1): NS

O=C1CN(CCCN2CCN(c3cccc(C(F)(F)F)c3)CC2)CC(=O)N1Cc1ccccc1 [Example 28, 1-Benzyl-4-{3-[1-(3-trifluoromethylphenyl)-4-piperazinyl]propyl}-2,6-piperazinedione diphosphate]
change in vivo at 25 mg/kg [1, 8]: 82%

COc1cccc(CN2C(=O)CN(CCCN3CCN(c4cccc(C(F)(F)F)c4)CC3)CC2=O)c1 [Example 29, 1-(3-Methoxybenzyl)-4-{3-[1-(3-trifluoromethylphenyl)-4-piperazinyl]propyl}-2,6-piperazinedione diphosphate]
change in vivo at 25 mg/kg [1, 8]: 49%

O=C1CN(Cc2ccccc2F)CC(=O)N1CCCN1CCN(c2ccc(C(F)(F)F)cn2)CC1 [Example 30, 4-(2-Fluorobenzyl)-1-{3-[1-(5-trifluoromethyl-2-pyridinyl)-4-piperazinyl]propyl}-2,6-piperazinedione dihydrochloride]
change in vivo at 5 mg/kg [1, 7]: 40%
